These compounds were tested against T1, Human Mer (Homo sapiens, UniProt Q12866) (assay: Human Mer kinase assay (33P radiometric / HTRF KinEase)). Conditions: protocols of Examples C-1 and/or C-2.
T1 construct: Human Mer (residues R557-E882 with H628Q and R794A, 0.7 nM); purchased Eurofins Pharma Discovery Services UK Limited (KinaseProfiler service)
T1 sequence (Q12866 557-882 limits assumed): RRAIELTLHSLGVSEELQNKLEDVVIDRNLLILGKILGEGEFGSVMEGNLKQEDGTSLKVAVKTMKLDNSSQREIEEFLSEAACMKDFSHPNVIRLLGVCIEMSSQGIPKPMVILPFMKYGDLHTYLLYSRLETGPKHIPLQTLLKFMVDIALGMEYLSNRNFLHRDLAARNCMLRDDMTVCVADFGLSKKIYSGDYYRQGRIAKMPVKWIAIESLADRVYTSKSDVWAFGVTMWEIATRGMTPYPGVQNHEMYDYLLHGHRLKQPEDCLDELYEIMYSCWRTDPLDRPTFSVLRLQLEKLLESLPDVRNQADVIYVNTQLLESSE
Assay type: biochemical
Method in brief: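 Two formats yield IC50 values. HTRF KinEase used MER residues 528-999 with ATP at Km (40 μM), 1 μM biotin-peptide, 60 min RT, […], 10 concentrations. 33P filter assay used 0.7 nM Mer R557-E882 (H628Q/R794A), 10 μM ATP, 250 μM peptide, 40 min RT, top 1 μM.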

IC50, > 300 nM:
COCCOc1cc2nccc(Oc3cc(F)c(NC(=O)c4c(C)n(C)c(C)c(C#N)c4=O)cc3F)c2nc1OC [Compound 83, 5-Cyano-N-[2,5-difluoro-4-[[6-methoxy-7-(2-methoxyethoxy)-1,5-naphthyridin-4-yl]oxy]phenyl]-1,2,6-trimethyl-4-oxopyridine-3-carboxamide]
COc1cc2nccc(Oc3ccc(NC(=O)c4c(C)n(C)c(C)c(C5CC5)c4=O)cc3)c2nc1OC [Compound 48, 5-Cyclopropyl-N-[4-[(6,7-dimethoxy-1,5-naphthyridin-4-yl)oxy]phenyl]-1,2,6-trimethyl-4-oxopyridine-3-carboxamide]

IC50, ≤ 100 nM:
COCCOc1cc2nccc(Oc3ccc(NC(=O)c4c(C)n(C)c(C)c(C5=CCCC5)c4=O)cc3F)c2nc1OC [Compound 42, 5-(Cyclopenten-1-yl)-N-[3-fluoro-4-[[6-methoxy-7-(2-methoxyethoxy)-1,5-naphthyridin-4-yl]oxy]phenyl]-1,2,6-trimethyl-4-oxopyridine-3-carboxamide]
COc1cc2nccc(Oc3ccc(NC(=O)c4c(C)nc(C)c(C(C)C)c4O)cc3F)c2nc1OC [Compound 31, N-[4-[(6,7-Dimethoxy-1,5-naphthyridin-4-yl)oxy]-3-fluorophenyl]-4-hydroxy-2,6-dimethyl-5-propan-2-ylpyridine-3-carboxamide]
COc1cc2nccc(Oc3ccc(NC(=O)c4c5n(c(C)c(C6=CCCC6)c4=O)CCOC5)cc3)c2nc1OC [Compound 99, 7-(Cyclopenten-1-yl)-N-[4-[(6,7-dimethoxy-1,5-naphthyridin-4-yl)oxy]phenyl]-6-methyl-8-oxo-3,4-dihydro-1H-pyrido[2,1-c][1,4]oxazine-9-carboxamide]
COc1cc2nccc(Oc3ccc(NC(=O)c4c(C)c(Br)c(C)n(C5CCCC5)c4=O)cc3F)c2nc1OC [Compound 22, 5-Bromo-1-cyclopentyl-N-[4-[(6,7-dimethoxy-1,5-naphthyridin-4-yl)oxy]-3-fluorophenyl]-4,6-dimethyl-2-oxopyridine-3-carboxamide]
COc1ccc2nccc(Oc3ccc(NC(=O)c4cnc(C)c(C5=CCCCC5)c4O)cc3F)c2n1 [Compound 1-6, 5-(Cyclohexen-1-yl)-N-[3-fluoro-4-[(6-methoxy-1,5-naphthyridin-4-yl)oxy]phenyl]-4-hydroxy-6-methylpyridine-3-carboxamide]
COc1cc2nccc(Oc3ccc(NC(=O)c4cnc(C)c(C5=CCCCC5)c4O)cc3)c2cc1OC [Compound 24, 5-(Cyclohexen-1-yl)-N-[4-(6,7-dimethoxyquinolin-4-yl)oxyphenyl]-4-hydroxy-6-methylpyridine-3-carboxamide]
COc1cc2nccc(Oc3ccc(NC(=O)c4c(C)nc(C)c(C(=O)NC(C)C)c4O)cc3F)c2nc1OC [Compound 94, 3-N-[4-[(6,7-Dimethoxy-1,5-naphthyridin-4-yl)oxy]-3-fluorophenyl]-4-hydroxy-2,6-dimethyl-5-N-propan-2-ylpyridine-3,5-dicarboxamide]
COc1cc2nccc(Oc3ccc(NC(=O)c4cnc(C)c(/C=C/C5CC5)c4O)cc3F)c2nc1OC [Compound 26, 5-[(E)-2-Cyclopropylethenyl]-N-[4-[(6,7-dimethoxy-1,5-naphthyridin-4-yl)oxy]-3-fluorophenyl]-4-hydroxy-6-methylpyridine-3-carboxamide]
COc1cc2nccc(Oc3ccc(NC(=O)c4c(C)cc(C)n(C5=CCCC5)c4=O)cc3F)c2nc1OC [Compound 14, 1-(Cyclopenten-1-yl)-N-[4-[(6,7-dimethoxy-1,5-naphthyridin-4-yl)oxy]-3-fluorophenyl]-4,6-dimethyl-2-oxopyridine-3-carboxamide]
COc1cc2nccc(Oc3ccc(NC(=O)c4c(C)n(C)c(C)c(/C=C/C(C)(C)C)c4=O)cc3F)c2nc1OC [Compound 49, N-[4-[(6,7-Dimethoxy-1,5-naphthyridin-4-yl)oxy]-3-fluorophenyl]-5-[(E)-3,3-dimethylbut-1-enyl]-1,2,6-trimethyl-4-oxopyridine-3-carboxamide]
